The record followed here is paper PMC5609913, “Structure based design, synthesis and activity studies of small hybrid molecules as HDAC and G9a dual inhibitors” (Oncotarget, 2017).

The target of assay [1] is T1, Mouse histone methyltransferase G9a (969-1263) (Mus musculus, UniProt Q9Z148).
T1 construct: The 6His-sumo mG9a (969-1263) protein was purified using the following procedure; 6His-sumo (N, cleaved yes); made in house; host or cells: Escherichia coli BL21 (DE3)
T1 sequence (Q9Z148 969-1263): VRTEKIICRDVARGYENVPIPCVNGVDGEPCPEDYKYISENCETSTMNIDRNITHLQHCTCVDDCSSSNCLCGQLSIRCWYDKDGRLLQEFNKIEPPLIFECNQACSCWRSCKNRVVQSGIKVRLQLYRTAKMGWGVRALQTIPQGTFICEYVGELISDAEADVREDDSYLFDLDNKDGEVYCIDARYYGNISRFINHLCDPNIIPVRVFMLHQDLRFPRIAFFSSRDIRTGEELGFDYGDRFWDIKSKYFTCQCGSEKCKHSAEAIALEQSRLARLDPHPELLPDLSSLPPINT
Nature of the assay: MALDI-TOF methylation study of G9a enzymatic activity (H3 peptide, SAM). Type of assay: biochemical. On the procedure: Figure 3 compounds were synthesized from the commercially available starting material 1. An initial displacement reaction using a primary amine was used to introduce the C4 selective substitution, with the second displacement to introduce the linker at the C2 position following the microwave assisted reaction previously reported. Boc-protected ethylene diamine was treated with compound 2 at 160°C in a microwave for 10 min to yield product 3 with excellent yield. Afterward, the amine 3 was deprotected with TFA/DCM, and the free amine was treated with corresponding monomethyl esters (carbon chain 2-6) in the presence of coupling reagent EDCI and HOBt for about 8 hours to produce mono methyl ester substituted at the C2 position. The ester compounds further treated with hydroxylamine in water to get the corresponding hydroxamic acid derivatives, which were purified using reverse phase flash chromatography to obtain compounds 4-7 and 4a-7a in good yield. Synthesis of compounds in Figure 4 requires the C6 demethoxy core, and this was synthesized according to the reported procedure to yield 10 [45]. […] Compounds with the HDAC pharmacophore at the C4 position (Figure 2B) were synthesized from the starting material 1. […] A parallel synthesis and testing strategy were used in establishing the primary SAR, with the clear rationalization of the structure and activity at each stage we could reduce the synthetic targets. Initially, we evaluated the G9a potential after the introduction of HDAC pharmacophore. A biochemical assay using MALDI-TOF was used to visualize the effects of the synthesized compounds on G9a enzymatic activity, we carried out a biochemical reaction involving target enzyme G9a, methyl donor SAM and substrate H3 peptide at a concentration of 400 nM, 10 μM and 5 μM respectively.
Mouse histone methyltransferase G9a (969-1263) cDNA was amplified from the cDNA of BALB/c mouse thymus, and the fragment was sub-cloned into a vector with a 6His-sumo tag. The mouse G9a (mG9a) was expressed in Escherichia coli BL21 (DE3) by the addition of 1 mM isopropyl-1-thio-D-galactopyranoside (IPTG) and incubated overnight at 16°C.
The in vitro inhibition of G9a by the synthesized compounds were measured by MALDI-TOF mass spectrum (Bruker MALDI TOF/TOF Analyzer). 400 nM purified G9a, 5 μM synthesized histone H3 (1-21) and 10 μM non-radioactive S-adenosyl methionine (Sigma) were added in reaction buffer (50 mM HEPES pH 8.0, 5 μg/ml BSA and 0.1% β-Mercaptoethanol) with or without inhibitors (5 μM). The reaction was incubated at room temperature for 30 min, and stopped by TFA. 1 μl of the sample was mixed with CHCA matrix and m/z peaks were obtained at reflection positive mode. The results of mass spectrum were analyzed using the Bruker flex analysis software, a detailed description of data processing is provided as supplementary information (S3).
[…]
MALDI spectrums were collected using Bruker flex % conversion to product is also C, from this to get the control software and analyzed by flex analysis. After %maximal activity (%MA), C was compared to the % labelling each cluster peaks of H3K9Me0, H3K9Me1 conversion when no inhibitor was used (D). and H3K9Me2 for all of the tested concentrations, area Finally % inhibition was found by subtracting under the cluster (AUC) were extracted by using the same %MA from 100 […]
flex analysis software. % abundance of each peak was Example: % methylation levels and % inhibition calculated by following formula, when used 5 μM compound 14
A = % Abundance of (H3K9Me0) = area of A = 13.09
B = % Abundance of (H3K9Me1) = area of % conversion when no inhibitor was used D = 84.43 H3K9Me1/ (area of H3K9Me0+area of H3K9Me1 + area (average of six measurements) […]

Another assay relates to MCF-7 cells. The experiment in a line: Cell anti-proliferation / toxicity assay (CCK-8), MCF-7. Type of assay: cell-based. The following applies: Homo sapiens, MCF7, 72 h, CCK-8, read-out: EC50 MCF-7. On the procedure: Cell anti-proliferation assays were performed to determine the toxicity of these inhibitors. […] These compounds were further evaluated against the control cell line HEK293 to test their toxicity with a non-cancerous cell line.
And then the cells were exposed to the different inhibitors with various concentrations for 72 h. […] EC50s were calculated using GraphPad Prizm statistical package with sigmoidal variable slope dose response curve fit.

A further assay has as its system MDA-MB-231 cells. Nature of the assay: Cell anti-proliferation / toxicity assay (CCK-8), MDA-MB-231. Type of assay: cell-based. The conditions noted are these: Homo sapiens, MDA-MB-231, 72 h, CCK-8, read-out: EC50 MDA-MB-231. The method, then:
Initial tests designed around assessing whether a synergistic effect would be observed in real when a combination of G9a inhibitor and HDAC inhibitor used in conjunction.
Cell anti-proliferation assays were performed to determine the toxicity of these inhibitors. Several cell lines (MDA-MB-231, MCF-7 and A549) were incubated and then treated with varying concentrations of the inhibitors for 72 h, respectively. […] These compounds were further evaluated against the control cell line HEK293 to test their toxicity with a non-cancerous cell line.
A549, MDA-MB-231, MCF-7 and HEK293 cells were seeded at 8000-10000 cells (100 μl) in white 96-well plates and pre-incubate the plate for 24 h under standard cell culture conditions, respectively. And then the cells were exposed to the different inhibitors with various concentrations for 72 h. Finally, 10 μl of CCK-8 kit solution was added to each well and incubated for 3-4 hours under standard cell culture conditions, and the 96 well plates were measured the absorbance at 450 nm using Perkin–Elmer Wallac Victor ^3V 1420 multi label plate reader (Perkin–Elmer, Wellesley, USA). EC50s were calculated using GraphPad Prizm statistical package with sigmoidal variable slope dose response curve fit.

Setting [2] is: Supplementary Table 1, inhibitor 5 μM, 30 min, average of 3 values.
Where [3] appears, read: Supplementary Table 4, >100 = not reached at 100 μM.
The mark [4] stands for this setting: Table 6, mean ± SD of triplicates.

Read-outs that look alike come from different tables or passages of the source.

By inhibition is commonly meant how much of the control response was suppressed. By EC50 is commonly meant the concentration that produces a half-maximal response. On to `COc1ccc2c(NCCNC(=O)CCCCCC(=O)NO)nc(N3CCCN(C)CC3)nc2c1` [Compound 22, N1-hydroxy-N7-(2-((7-methoxy-2-(4-methyl-1,4-diazepan-1-yl)quinazolin-4-yl)amino)ethyl)heptanediamide], for which at 5 µM the inhibition in assay [1] (setting [2]) was 40.3 ± 15.3%. Further, the EC50 in the assay on MCF-7 cells (setting [3]) and with MDA-MB-231 cells (setting [3]) was over 100 µM in each case.

In assay [1] (setting [2]), `COc1cc2nc(N3CCCN(C)CC3)nc(NC3CCN(C(=O)CCCCCCC(=O)NO)CC3)c2cc1OC` [Compound 19, 8-(4-((6,7-dimethoxy-2-(4-methyl-1,4-diazepan-1-yl)quinazolin-4-yl)amino)piperidin-1-yl)-N-hydroxy-8-oxooctanamide] registered an inhibition at 5 µM of 10.7 ± 25.9%. Besides, the concentration giving a half-maximal response (EC50) in the assay on MCF-7 cells (setting [3]) and with MDA-MB-231 cells (setting [3]) was over 100 µM in each case.

Turning to `COc1cc2nc(NCCNC(=O)CCCCCC(=O)NO)nc(NC3CCN(Cc4ccccc4)CC3)c2cc1OC` [Compound 5b, N1-(2-((4-((1-benzylpiperidin-4-yl)amino)-6,7-dimethoxyquinazolin-2-yl)amino)ethyl)-N7-hydroxyheptanediamide], the inhibition at 5 µM in assay [1] (setting [2]) came out at 38 ± 4.99%. Besides, the EC50 in the assay on MCF-7 cells (setting [3]) worked out at 74.6 ± 1.81 µM; with MDA-MB-231 cells (setting [3]) it was 12.3 ± 3.27 µM.

In turn, `COc1ccc2c(NC3CCN(Cc4ccccc4)CC3)nc(NCCNC(=O)CCCCCC(=O)NO)nc2c1` [Compound 14, N1-(2-((4-((1-benzylpiperidin-4-yl)amino)-7-methoxyquinazolin-2-yl)amino)ethyl)-N7-hydroxyheptanediamide] came in with an inhibition at 5 µM in assay [1] (setting [2]) of 29.7 ± 23.3%. 5 µM produced 69.5% inhibition in assay [1] (worked example, single spectrum, 5 μM compound). Besides, in assay [1] (worked example, 5 μM compound), the “A = % Abundance of (H3K9Me0)” value stood at 13.09%, the “B = % Abundance of (H3K9Me1)” value was determined as 61.18% and the “C = % Abundance of (H3K9Me2) (% conversion to product)” value was determined as 25.72%. For the same compound, the activity at 5 µM in assay [1] (worked example, 5 μM compound, relative to no inhibitor (84.43), read-out: % maximal activity (%MA)) is 30.5%. For the same compound, the EC50 in the assay on MCF-7 cells (setting [4]) came out at 37.4 ± 2.2 µM. In the assay on MDA-MB-231 cells (setting [4]), the EC50 came to 10 ± 1.66 µM.

On to `COc1cc2nc(NCCNC(=O)CCCCCCC(=O)NO)nc(NC3CCN(C(C)C)CC3)c2cc1OC` [Compound 4a, N1-hydroxy-N8-(2-((4-((1-isopropylpiperidin-4-yl)amino)-6,7-dimethoxyquinazolin-2-yl)amino)ethyl)octanediamide], for which the inhibition at 5 µM in assay [1] (setting [2]) is 11.2 ± 3.68%. Further, the concentration for a half-maximal effect (EC50) in the assay with MCF-7 cells (setting [3]) and in the assay on MDA-MB-231 cells (setting [3]) was over 100 µM throughout.

In the case of `COc1cc2nc(NCCNC(=O)CCCC(=O)NO)nc(NC3CCN(C)CC3)c2cc1OC` [Compound 7, N1-(2-((6,7-dimethoxy-4-((1-methylpiperidin-4-yl)amino)quinazolin-2-yl)amino)ethyl)-N5-hydroxyglutaramide], testing at 5 µM in assay [1] (setting [2]) gave an inhibition of 19.6 ± 20.9%. The concentration for a half-maximal effect (EC50) in the assay on MCF-7 cells (setting [3]) and with MDA-MB-231 cells (setting [3]) was over 100 µM throughout.

In assay [1] (setting [2]), `COc1cc2nc(NCCNC(=O)CCCC(=O)NO)nc(NC3CCN(C(C)C)CC3)c2cc1OC` [Compound 7a, N1-hydroxy-N5-(2-((4-((1-isopropylpiperidin-4-yl)amino)-6,7-dimethoxyquinazolin-2-yl)amino)ethyl)glutaramide] showed an inhibition at 5 µM of 15 ± 15.7%. The EC50 in the assay with MCF-7 cells (setting [3]) and with MDA-MB-231 cells (setting [3]) was over 100 µM each time.

In assay [1] (setting [2]), `COc1ccc2c(NC3CCN(Cc4ccccc4)CC3)nc(NCCNC(=O)CCCC(=O)NO)nc2c1` [Compound 16, N1-(2-((4-((1-benzylpiperidin-4-yl)amino)-7-methoxyquinazolin-2-yl)amino)ethyl)-N5-hydroxyglutaramide] had an inhibition at 5 µM of 40.3 ± 13.8%. The 50% effective concentration (EC50) in the assay with MCF-7 cells (setting [3]) came out at 57.3 µM; with MDA-MB-231 cells (setting [3]), 38.1 µM.

Take `COc1cc2nc(N3CCCN(C)CC3)nc(NC3CCN(C(=O)CCCCCC(=O)NO)CC3)c2cc1OC` [Compound 20, 7-(4-((6,7-dimethoxy-2-(4-methyl-1,4-diazepan-1-yl)quinazolin-4-yl)amino)piperidin-1-yl)-N-hydroxy-7-oxoheptanamide]: the inhibition at 5 µM in assay [1] (setting [2]) turned out to be 14.6 ± 15.8%. In addition, the EC50 in the assay with MCF-7 cells (setting [3]) and with MDA-MB-231 cells (setting [3]) was over 100 µM in each case.

Compound `COc1cc2nc(NCCNC(=O)CCCCCC(=O)NO)nc(NC3CCN(C(C)C)CC3)c2cc1OC` [Compound 5a, N1-hydroxy-N7-(2-((4-((1-isopropylpiperidin-4-yl)amino)-6,7-dimethoxyquinazolin-2-yl)amino)ethyl)heptanediamide] showed an inhibition at 5 µM in assay [1] (setting [2]) of 47.5 ± 9.32%. For the same compound, the EC50 with MCF-7 cells (setting [3]) and with MDA-MB-231 cells (setting [3]) was over 100 µM each time.

`COc1cc2nc(NCCNC(=O)CCCCCCC(=O)NO)nc(NC3CCN(C)CC3)c2cc1OC` [Compound 4, N1-(2-((6,7-dimethoxy-4-((1-methylpiperidin-4-yl)amino)quinazolin-2-yl)amino)ethyl)-N8-hydroxyoctanediamide] displayed an inhibition at 5 µM in assay [1] (setting [2]) of 27 ± 12.2%. In addition, the EC50 with MCF-7 cells (setting [3]) and in the assay on MDA-MB-231 cells (setting [3]) was over 100 µM each time.

In turn, `COc1ccc2c(NC3CCN(Cc4ccccc4)CC3)nc(NCCNC(=O)CCCCCCC(=O)NO)nc2c1` [Compound 13, N1-(2-((4-((1-benzylpiperidin-4-yl)amino)-7-methoxyquinazolin-2-yl)amino)ethyl)-N8-hydroxyoctanediamide] gave an inhibition at 5 µM in assay [1] (setting [2]) of 24.9 ± 17.4%. Also, the concentration for a half-maximal effect (EC50) turned out to be 79.4 ± 2.72 µM in the assay with MCF-7 cells (setting [4]) and 89.3 ± 1.23 µM in the assay on MDA-MB-231 cells (setting [4]).

In turn, `COc1ccc2c(NC3CCN(C)CC3)nc(NCCNC(=O)CCCC(=O)NO)nc2c1` [Compound 16a, N1-hydroxy-N5-(2-((7-methoxy-4-((1-methylpiperidin-4-yl)amino)quinazolin-2-yl)amino)ethyl)glutaramide] registered an inhibition at 5 µM in assay [1] (setting [2]) of 40.3 ± 13.8%. Also, the EC50 was over 100 µM in the assay with MCF-7 cells (setting [3]) and 90.5 µM in the assay with MDA-MB-231 cells (setting [3]).
